The text below walks through data of patent publication US20120258976A1, “CRYSTALLINE PYRROLO[2,3-D]PYRIMIDINE COMPOUNDS” (Pfizer Inc., priority 2011, published 2012).

The nature of the data set: Tofacitinib stability in PEG-based ointment formulations after storage at 40° C. The format is physicochemical. The text has this: Topical formulations contain 3-((3R,4R)-4-methyl-3-[methyl-(7H-pyrrolo[2,3-d]pyrimidin-4-yl)amino]-piperidin-1-yl)-3-oxopropionitrile in therapeutically effective amounts that can be given in daily or twice daily doses to patients in need. These amounts range from about 0.1% to about 5.0% (w/v), more preferably, from about 0.1% to about 3.0%, more preferably still, from about 0.5% to about 2.3%, and, most preferably, about 2.0% (w/v). Among other excipients which enhance the stability of these formulations include aldehyde scavengers, such as glycerine and propylene glycol, and antioxidants, such as butyl hydroxyanisole (BHA), butyl hydroxytoluene (BHT), propyl gallate, ascorbic acid (Vitamin C), polyphenols, tocopherols (Vitamin E), and their derivatives. Preferably, PEG-based ointment formulations containing at least 30% polyethylene glycol, tofacifinib and one or more penetration enhancers and additional pharmaceutically acceptable excipients forming a stable formulation such that the level of total degradants is no more than 7% when the product is stored at 40° C. for 4 weeks. More preferably, addition of aldehyde scavengers and antioxidants into formulations Ointment 1 (A) and Ointment 2 (C) stabilized the polyethylene glycol containing ointment formulations such that the level of total degradants is no more than 5% when the product is stored at 40° C. for 4 weeks.

As for `C[C@@H]1CCN(C(=O)CC#N)C[C@@H]1N(C)c1ncnc2[nH]ccc12` [tofacitinib, 3-((3R,4R)-4-Methyl-3-[methyl-(7H-pyrrolo[2,3-d]pyrimidin-4-yl)-amino]-piperidin-1-yl)-3-oxopropionitrile], the “Stability of tofacitinib in the presence of polyethylene glycol (PEG)” value is listed as “poor stability”.
